Source: patent US11980616B2, “Treating liver disease by selectively eliminating senescent cells” (Buck Institute for Research on Aging, priority 2014, dated 2024)

Key:
[1] = tested on: senescence markers and SASP factors in senescent IMR90 cells; assay: qPCR of senescence markers and SASP factors in irradiated senescent IMR90 cells; type: cell-based, human
Protocol: Primary human fibroblast (IMR90) cells were induced to senesce by applying 10 Gy of irradiation. Seven days after irradiation (Day 0), cells were treated with 10 μM Nutlin-3a or vehicle (DMSO) for nine days (Day 9). The drug or vehicle was refreshed every three days. Drug/vehicle was removed at Day 9 and the cells were cultured for an additional three days (Day 12) in media without drug or DMSO. Cells were then collected, mRNA extracted, and cDNA prepared. Quantitative PCR (qPCR) was then performed to detect expression of various genes. Cells were also collected at Day 12 after drug/vehicle had been removed for three days. The data are presented as an average of three samples. Data were normalized to actin and depicted as a ratio to non-senescent cells.

[2] = tested on: osteoarthritic joint of mice after ACL surgery; assay: Osteoarthritis mouse model (ACL surgery); type: in vivo
Protocol: A table and schematic of two osteoarthritis mouse model study designs are presented in FIGS. 35 and 36, respectively. The two treatment studies were designed to determine the effect of removing senescent cells in an animal model of osteoarthritis.
Parallel studies were performed. One study investigated the effect of eliminating senescent cells with ganciclovir (GCV) in 3MR mice. Mice underwent surgery to cut the anterior cruciate ligament of one rear limb to induce osteoarthritis in the joint of that limb. During week 2 post-surgery, 3MR mice received 2.5 μg GCV to the operated knee by intra-articular injection, qd for 5 days, with a 2nd treatment (2.5 μg GCV qd for 5 days) during week 4 post-surgery. At the end of 4 weeks post-surgery, operated joints of the mice were monitored for presence of senescent cells, assessed for function, monitored for markers of inflammation, and underwent histological assessment.
In a parallel study, C57BL/6J mice underwent surgery to cut the anterior cruciate ligament of one rear limb to induce osteoarthritis in the joint of that limb. During week 3 and week 4 post-surgery, the mice were treated with 5.8 μg of Nutlin-3A (n=7) per operated knee by intra-articular injection, qod for 2 weeks. At the end of 4 weeks post-surgery, joints of the mice were monitored for presence of senescent cells, assessed for function, monitored for markers of inflammation, and underwent histological assessment.
Two control groups of mice were included in the studies performed: one group comprising C57BL/6J or 3MR mice that had undergone a sham surgery (n=3) (i.e., surgical procedures followed except for cutting the ACL) and intra-articular injections of vehicle parallel to the GCV-treated group; and one group comprising C57BL/6J or 3MR mice that had undergone an ACL surgery and received intra-articular injections of vehicle (n=5) parallel to the GCV-treated group.
RNA from the operated joints of mice from the Nutlin-3A treated mice was analyzed for expression of SASP factors (mmp3, IL-6) and senescence markers (p16). qRT-PCR was performed to detect mRNA levels. […] RNA from the operated joints of mice was also analyzed for expression of type 2 collagen and compared with expression of actin as a control.
Function of the limbs was assessed 4 weeks post-surgery by a weight bearing test to determine which leg the mice favored (FIG. 39). The mice were allowed to acclimate to the chamber on at least 3 occasions prior to taking measurements. Mice were maneuvered inside the chamber to stand with 1 hind paw on each scale. The weight that was placed on each hind limb was measured over a 3-second period. At least 3 separate measurements were made for each animal at each time point. The results were expressed as the percentage of the weight placed on the operated limb versus the contralateral unoperated limb.
The function of the limbs was also assessed at 4 weeks post-surgery by hotplate analysis to show sensitivity and reaction to pain stimulus. In brief, a mouse was placed on a hotplate at 55° C. When placed on the hot surface of the plate, mice will lift their paws and lick them (paw-lick response) due to attainment of pain threshold. The latency period for the hind limb response (paw-lick response) is recorded as response time.
Histopathology of osteoarthritis induced by ACL surgery illustrated that the proteoglycan layer was destroyed. […] Clearing of senescent cells from the 3MR mice treated with GCV, which kills senescent cells, had the same impact on pathophysiology of osteoarthritis as Nutlin-3A.

[3] = 10 μM, drug present and after removal
[4] = Day 12, three days after drug removal

| SMILES | p21 level relative to non-senescent cells ([1]; 10 μM, Day 9, qPCR normalized to actin) | IL-1α level ([1]; 10 μM, Day 9 and Day 12) | CXCL-1 level [1, 3] | IL-6 level [1, 3] | IL-8 level [1, 3] | p16 level [1, 4] | p21 level vs DMSO treated cells [1, 4] | p16 level ([1]; in the presence of drug (Day 9)) | Type 2 collagen expression in operated joints ([2]; 5.8 μg per knee intra-articular, vs untreated mice) | Weight bearing test (weight on operated vs unoperated limb) ([2]; 4 weeks post-surgery) | Hotplate paw-lick response time ([2]; 55° C., 4 weeks post-surgery) | Histopathology: destruction of the proteoglycan layer ([2]; C57BL/6J, 5.8 μg per knee intra-articular) | Senescent cells in the joint (p16 and SASP factor mRNA, qRT-PCR) ([2]; C57BL/6J, 5.8 μg per knee intra-articular qod 2 weeks, 4 weeks post-surgery) | Histopathology: impact on pathophysiology of osteoarthritis ([2]; 3MR mice, 2.5 μg intra-articular qd 5 days, weeks 2 and 4) |
| --- | --- | --- | --- | --- | --- | --- | --- | --- | --- | --- | --- | --- | --- | --- |
| COc1ccc(C2=N[C@@H](c3ccc(Cl)cc3)[C@@H](c3ccc(Cl)cc3)N2C(=O)N2CCNC(=O)C2)c(OC(C)C)c1 [Nutlin-3a] | approximately 90 fold | decreased only after Nutlin-3a had been removed | reduced | reduced | reduced | decrease | comparable | did not change | drives collagen production | abrogates this effect | decreases the response time in a significant manner | completely abrogated this effect | clears senescent cells from the joint | – |
| Nc1nc(O)c2ncn(COC(CO)CO)c2n1 [ganciclovir] | – | – | – | – | – | – | – | – | – | – | – | – | – | same impact |
